This is an account of results in publication PMC11249626, “Fluorophore-Labeled Pyrrolones Targeting the Intracellular Allosteric Binding Site of the Chemokine Receptor CCR1” (ACS Pharmacology & Translational Science, 2024).

The target of this assay is T1, CCR9 (Homo sapiens, UniProt P51686).
T1 construct: host or cells: HEK293T, transient
T1 sequence (P51686 1-369): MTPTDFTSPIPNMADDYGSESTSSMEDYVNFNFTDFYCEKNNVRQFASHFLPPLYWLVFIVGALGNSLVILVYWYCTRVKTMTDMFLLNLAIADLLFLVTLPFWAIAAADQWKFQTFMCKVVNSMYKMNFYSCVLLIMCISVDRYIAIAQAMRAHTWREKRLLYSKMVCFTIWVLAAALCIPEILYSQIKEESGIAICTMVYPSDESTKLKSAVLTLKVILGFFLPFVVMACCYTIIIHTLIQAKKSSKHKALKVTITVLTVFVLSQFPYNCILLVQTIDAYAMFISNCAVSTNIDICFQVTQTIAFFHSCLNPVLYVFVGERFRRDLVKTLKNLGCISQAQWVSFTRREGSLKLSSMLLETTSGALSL
The experiment in a line: Membrane-based NanoBRET saturation binding assay, CCR9_Nluc membranes. The conditions noted are these: compared with CCR1. How it is done: Emission spectra of Nluc -labeled CCR1 (CCR1_Nluc) protein: The emission spectra of CCR1_Nluc has already been reported by Toy et al.1 For a confirmation of the reported data with new CCR1_Nluc membrane batches, furimazine (Promega, Mannheim, Germany 1:2000) was added to the membrane preparations (2 µg protein/well). […]
NanoBRET binding assays: Membrane-based NanoBRET saturation assay: For the establishment of our NanoBRET binding assay, we referred to recently published protocols. […]
Then, 20 µL of the membrane preparations diluted in assay buffer (3 µg total protein/well) were added and the plates were incubated for 90 min at 37 °C. Subsequently, 5 µL of a furimazine solution (Promega, Mannheim, Germany, final assay dilution: 1:5,000) were added to each well (final assay volume: 35 µL) before measuring luminescence with a CLARIOstar microplate reader using 620/10 nm and 475/30 nm emission filters after 5 min of incubation in the dark. Bioluminescence resonance energy transfer (BRET) was determined as the ratio of acceptor fluorescence and donor luminescence. […] Specific binding signals were calculated as a difference of total and non-specific binding. If required, netBRET values were calculated as the difference between total BRET values and the values obtained in the absence of a fluorescent ligand. […]
In general terms: Bioluminescence resonance energy transfer reports proximity on the nanometre scale.

`CN(C)c1ccc2c(-c3cc(C(=O)NCCOCCOCc4cn(CCCC(=O)C5=C(O)C(=O)N(c6ccc(Br)cc6F)C5C5CCCCC5)nn4)ccc3C(=O)[O-])c3ccc(=[N+](C)C)cc-3oc2c1` (stereo not shown) [compound 12]: the “Binding signal for CCR9” value is “much weaker”.
